Data on 24 molecules can be found in patent publication US20260193236A1 (Protego Biopharma, Inc., priority 2022, published 2026).

Molecules are shown by their SMILES.

For this assay, the system named is IRE1-XBP1s (XBP1-RLuc splicing reporter in HEK293 T-REx cells). Briefly: IRE1-XBP1s activation assay (XBP1-RLuc splicing reporter, HEK293 T-REx cells, luminescence relative to thapsigargin). The class given is cell-based. Conditions: 18 h, compound 10 μM, HEK293 T-REx XBP1-RLuc reporter cells, relative to thapsigargin (Tg) 500 nM, read-out: Activity (IRE1-XBP1s activation, luminescence as % signal relative to thapsigargin, % Tg). Here is the method: IRE1-XBP1s activation Assay: HEK293 T-REx cells stably expressing the XBP1-RLuc splicing reporter were treated with an IRE1-XBP1s activator provided herein (10 μM) in the presence or absence of the IRE1 active site inhibitor 4μ8C (32 μM) for 18 h. Luminescence was shown as the percentage signal relative to thapsigargin (Tg) (500 nM, 18 h).
`Cc1ccc(OCCN(C)C(=O)Cn2cc(NC(=O)CCNc3ccc(F)nc3C)cn2)cn1` [Compound 243]: the activation at 10 µM is under 30%.

With `Cc1ccc(OCCN(C)C(=O)Cn2cc(NC(=O)CCNc3cncc(C(F)(F)F)n3)cn2)cc1` [Compound 185], the activation at 10 µM is under 30%.

For `CN(CCOc1ccc(C(F)(F)F)cn1)C(=O)Cn1cc(NC(=O)CCNc2ccnc(O)n2)cn1` [Compound 265], the activation at 10 µM was under 30%.

Turning to `Cc1ccc(OCCN(C)C(=O)Cn2cc(NC(=O)COCc3cccnc3N)cn2)cc1` [Compound 84], the activation at 10 µM was under 30%.

Consider `CN(CCOc1ccc(C(F)(F)F)cn1)C(=O)Cn1cc(NC(=O)CCOc2ccc(Cl)cc2F)cn1` [Compound 94], for which the activation at 10 µM lay in the range of 30 to 50%.

`Cc1ccc(OCCC(=O)Nc2cnn(CC(=O)N(C)CCOc3cc(F)c(C)c(F)c3)c2)c(F)c1` [Compound 85]: the activation at 10 µM was over 50%.

`Cc1ccc(OCCN(C)C(=O)Cn2cc(NC(=O)CCNc3ccc(C#N)nc3C)cn2)cc1` [Compound 176]: the activation at 10 µM was under 30%.

Regarding `Cc1ccc2sc(OCCN(C)C(=O)Cn3cc(NC(=O)CCNc4ccc(F)nc4C)cn3)nc2c1` [Compound 246], the activation at 10 µM was under 30%.

With `COc1ccc(OCCN(C)C(=O)Cn2cc(NC(=O)CCOc3ccnc(F)c3)cn2)cc1` [Compound 96], the activation at 10 µM is under 30%.

As to `Cc1ccc(OCCN(C)C(=O)Cn2cc(NC(=O)CCNc3cc(N)ccn3)cn2)cc1` [Compound 202], the activation at 10 µM was over 50%.

As to `Cc1cnc(OCCN(C)C(=O)Cn2cc(NC(=O)CCNc3ccc(F)nc3C)cn2)nc1` [Compound 244], the activation at 10 µM was under 30%.

For `Cc1ccc(OCCN(C)C(=O)Cn2cc(NC(=O)CCNc3c(F)cncc3C3CC3)cn2)cc1` [Compound 250, 3-((3-cyclopropyl-5-fluoropyridin-4-yl)amino)-N-(1-(2-(methyl(2-(p-tolyloxy)ethyl)amino)-2-oxoethyl)-1H-pyrazol-4-yl)propanamide], the activation at 10 µM is over 50%.

With `Cc1ccc(OCCN(C)C(=O)Cn2cc(NC(=O)CCNc3nc(C)ccc3F)cn2)cc1` [Compound 159], the activation at 10 µM was in the range of 30 to 50%.

`Cc1ccc(OCCN(C)C(=O)Cn2cc(NC(=O)CCNc3cc(C(F)(F)F)ccn3)cn2)cc1` [Compound 133]: the activation at 10 µM is over 50%.

With `Cc1ccc(OCCN(C)C(=O)Cn2cc(NC(=O)CCOC3CCC(C)(C)CC3)cn2)cc1` [Compound 3, 3-((4,4-dimethylcyclohexyl)oxy)-N-(1-(2-(methyl(2-(p-tolyloxy)ethyl)amino)-2-oxoethyl)-1H-pyrazol-4-yl)propanamide], the activation at 10 µM was over 50%.

`Cc1ccc(OCCN(C)C(=O)Cn2cc(NC(=O)CCNc3cc(C#N)ccn3)cn2)cc1` [Compound 137]: the activation at 10 µM was under 30%.

Regarding `Cc1ccc(OCCN(C)C(=O)Cn2cc(NC(=O)CCOc3cccnc3C)cn2)cc1` [Compound 13], the activation at 10 µM is 30 to 50%.

Take `Cc1ccc(OCCN(C)C(=O)Cn2cc(NC(=O)COc3cc4ccccn4n3)cn2)cc1` [Compound 289]: the activation at 10 µM is over 50%.

Consider `Cc1ccc(OC[C@@H](C)N(C)C(=O)Cn2cc(NC(=O)CCNc3nccc(F)n3)cn2)cc1` [Compound 270], for which the activation at 10 µM lay within 30 to 50%.

For `Cc1ccc(OCCN(C)C(=O)Cn2cc(NC(=O)CCNc3ccnc(Cl)c3)cn2)cc1` [Compound 149], the activation at 10 µM is over 50%.

As for `COc1cc(C)ccc1OCCN(C)C(=O)Cn1cc(NC(=O)CCNc2ncccn2)cn1` [Compound 284], the activation at 10 µM was under 30%.

As to `Cc1ccc(OCCN(C)C(=O)Cn2cc(NC(=O)CCNc3cccc(Cl)n3)cn2)cc1` [Compound 156], the activation at 10 µM is over 50%.

As for `COc1cccc(OCCN(C)C(=O)Cn2cc(NC(=O)CCOc3ccc(C)cc3F)cn2)c1` [Compound 74], the activation at 10 µM was under 30%.

In the case of `Cc1ccc(OCCN(C)C(=O)Cn2cc(NC(=O)CCOc3ccnc(Br)c3)cn2)cc1` [Compound 98], the activation at 10 µM is over 50%.
